Reference: paper PMC5818060 (Journal of Cell Science, 2018)
Ends that are not written are not given here. Peptide text beside a SMILES is read from it. * marks the point of attachment. Biotin = O=C1N[C@H]2[C@H](CS[C@H]2CCCCC(=O)*)N1

Key:
[1] = tested on: endogenous CK1 / CK1 sensor in HEK293T cells; assay: CK1 FRET biosensor, microplate reader FRET/CFP ratio; type: cell-based, human; conditions: HEK293T with CK1 sensor; for effect of transfected peptide on FRET/CFP ratio (endogenous CK1 activity): peptide transfected (Metafectene), analyzed 1.5 h after peptide transfection, n=3; for size of reduction of CK1 biosensor activity relative to CK1-specific small-molecule inhibitors or DDX3X siRNA: transfected peptide
Procedure: HEK293T cells were seeded at a density of 20,000 cells/well on 96-well black microplates (PS, μClear, clear bottom, chimney well, Greiner No. 655090). Transfection was performed as described above. Unless indicated otherwise, the respective cell populations were transfected with 50-100 ng CK1 FRET biosensor, 100 ng regulator (i.e. N-Flag DDX3X) and 1-10 ng kinase (i.e. N-Flag CK1ε). Either empty pCS2 N-Flag vector or luciferase were used to transfect the same amount of DNA in every well. Generally, the different samples were run in triplicate for each individual experiment. Owing to the varying values for the FRET/CFP ratios based on transfection efficiency, cell density and the time point of analysis, we always set the FRET/CFP ratio of cells only transfected with the CK1 sensor to 1 in order to compare individual experiments. Importantly, the individual figures with the CK1 sensor represent only experiments performed on the same 96-well plate with the same cell density, transfection efficiency and time point.
Where applicable, the small-molecule CK1 inhibitor D4476 (BioVision) was added to the cells 2-4 h prior to the analysis. For each triplicate the respective volume of D4476 (in DMSO) was added together with 1 μl Fugene HD (Promega) to 60 μl serum-free medium. The solution was mixed, incubated for 15 min and added to the cells. […] In the corresponding controls an equal amount of DMSO instead of the inhibitor was added to the medium. Analysis was performed 48-60 h after transfection on an Infinite M1000 PRO microplate reader (Tecan) by exciting CFP with a wavelength of 433 nm and measuring the resulting emission at 460-600 nm in 2 nm increments. Fluorometric spectra were background subtracted with spectra recorded from wells with non-transfected cells. Resulting FRET/CFP ratios were calculated by dividing the intensity values at the respective peaks (478 nm for CFP, 528 nm for YFP) and analyzed essentially as described ([Fritz et al., 2013]). Where indicated, CK1δ/ε-derived peptides were transfected into cells using Metafectene (Biontex) 1 hour before measurements.

[2] = biological target: T1, His-DDX3X^414-582 (Homo sapiens, UniProt O00571); assay: Fluorescence thermal shift (FTS) assay; type: binding; conditions: 20 µM peptide, 10 µM His-DDX3X^414-582, 50 mM HEPES pH 8, SYPRO-Orange
T1 construct: contained 10 µM His-DDX3X^414-582; His; made in house; host or cells: E. coli Rosetta2 (pET28a)
Procedure: FTS reactions were performed in a total volume of 20 µl in 50 mM HEPES (pH 8) and contained 10 µM His-DDX3X^414-582, a final concentration of 20 µM of each indicated CK1δ- or CK1ε-derived peptide, as well as 10×SYPRO-Orange (Invitrogen). DMSO (0.35%) and water were used as controls. Measurements were performed in a LightCycler 480 device for real-time PCR (Roche) according to the manufacturer's instructions. Respective protein melting temperatures were calculated using the protein-melting evaluation software supplied by Roche.

[3] = tested on: DDX3X^414-582 (C-terminal helicase domain); assay: Biolayer interferometry (BLItz); type: binding, human; conditions: biotin-peptide 100 µM loaded on streptavidin chip; DDX3X^414-582 250 µM; 50 mM Tris-HCl pH 7.5, 10 mM NaCl; 60 s association/dissociation; three recordings
Procedure: Biolayer interferometry was measured on the BLItz system (Pall ForteBIO LLC). High Precision Streptavidin biosensor chips were loaded three times with 100 µM biotin-coupled CK1 peptides in 50 mM Tris-HCl (pH 7.5), 10 mM NaCl for 30 s, followed by a step to block free biotin binding sites with 10 µM biocytin. Association and dissociation times of DDX3X^414-582 (250 µM) were fixed at 60 s. Binding and dissociation curves were recorded three times.

[4] = tested on: DDX3X-stimulated CK1ε (CK1εΔC); assay: In vitro radioactive kinase assay, DDX3X-stimulated CK1ε activity; type: biochemical, human; conditions: 0.3 µM peptide; recombinant DDX3X and CK1εΔC; CK1εΔC alone set to 1; n=3
Procedure: (§1) Kinase assays were carried out essentially as described ([Cruciat et al., 2013]). For kinase assays, full-length DDX3X protein was expressed and purified from HEK293T cells as described for the ATPase assay. Deletion constructs were purified from E. coli. The eluted proteins were visualized using Coomassie Blue and the intensity of the protein bands was measured using ImageJ. The amounts used for kinase assays were estimated based on this staining. Where indicated, dsRNA was premixed with proteins at room temperature (RT) for 15 min before subjecting samples to radioactive kinase assays. The CK1 substrate peptide […] for the kinase assay and samples was analyzed using p81 phosphocellulose (Biomol) as described ([Zhai et al., 1992]). 0.3 µM CK1δ/ε-derived and control peptides were used ([Schacherl et al., 2015]). For mass spectrometric analyses DDX3X helicase core (His-DDX3X^168-582) as well as the C-terminal helicase domain (His-DDX3X^414-582) were in vitro phosphorylated by CK1ε. Also, reactions without addition of kinase were performed and analyzed in order to correct for false-positive results. Mass spectrometry data acquisition and analysis of trypsin-digested samples were performed at the Core Unit Mass Spectrometry and Proteomics (Ulm University) essentially as described in [Meng et al. (2016)].

[5] = tested on: CK1ε; assay: In vitro radioactive kinase assay, CK1ε activity itself (no DDX3X stimulation); type: biochemical, human; conditions: 0.3 µM peptide; n=3
Procedure: as §1

[6] = biological target: T1, His-DDX3X^414-582; assay: Direct-binding ELISA of biotinylated CK1 peptides on coated His-DDX3X^414-582; conditions: 1 µg/well biotinylated peptide, 2.5 h, room temperature; HRP-streptavidin/ABTS, 405 nm; data normalized to δ-141 = 100%; n=3
From the text: According to the amino acid sequences of the N-terminal and the kinase domain of human CK1δ (UniProt entry P48730), 30 CK1δ-derived peptides were generated. In order to investigate the effects of sequence-specific differences in the sequence of CK1ε (UniProt entry P49674) compared with CK1δ, seven additional CK1ε-derived peptides were generated (Fig. S2). Each peptide consists of 15 amino acids with the first and last five amino acids always overlapping the previous and the following peptide, respectively. At the N-terminus the peptides were coupled to biotin via a four amino acid spacer sequence (SGSG). For peptide position and sequence information see Fig. S2. All peptides were pre-dissolved in DMSO (final concentration of 12.5% DMSO in the peptide stock).
His-DDX3X^414-582 protein fragment was coated onto 96-well Nunc MaxiSorp plates (NUNC, Denmark) at a final concentration of 0.01 µg/µl in 100 mM sodium carbonate buffer (pH 9.6) at 4°C overnight. Unspecific binding sites were blocked with 5% FCS in PBS. Biotinylated CK1δ- and CK1ε-derived peptides (1 µg/well) were added and incubated for 2.5 h at room temperature. DMSO (0.35%) and water were used as negative controls. Detection of the bound biotinylated peptides was performed by incubation with HRP-streptavidin (1:8000 in 0.5% FCS in PBS). Finally, plates were incubated with ABTS detection reagent [50 mM potassium phosphate buffer, pH 5.7, 5% ABTS solution (1 mg/ml), 0.05% H2O2]. Absorption was measured at 405 nm after incubation for 40 min.

T1 sequence (O00571 414-582): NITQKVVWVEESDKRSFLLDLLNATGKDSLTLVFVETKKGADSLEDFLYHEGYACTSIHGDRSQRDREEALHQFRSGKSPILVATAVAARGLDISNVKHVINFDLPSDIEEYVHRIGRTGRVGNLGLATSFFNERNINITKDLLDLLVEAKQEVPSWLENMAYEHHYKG

Compound	effect of transfected peptide on FRET/CFP ratio (endogenous CK1 activity) [1]	size of reduction of CK1 biosensor activity relative to CK1-specific small-molecule inhibitors or DDX3X siRNA [1]	Tm shift / binding by FTS, in words [2]	binding to C-terminal helicase domain of DDX3X (BLItz) [3]	effect of peptide on DDX3X stimulation of CK1ε kinase activity [4]	effect of peptide on CK1ε kinase activity itself [5]	Binding to His-DDX3X^414-582 (ELISA) [6]
CC[C@H](C)[C@H](NC(=O)[C@H](CCCCN)NC(=O)[C@H](CO)NC(=O)[C@H](CCC(=O)O)NC(=O)[C@@H](NC(=O)[C@H](Cc1c[nH]cn1)NC(=O)[C@H](CC(C)C)NC(=O)[C@H](CCC(N)=O)NC(=O)[C@@H]1CCCN1C(=O)[C@H](Cc1c[nH]cn1)NC(=O)[C@H](CCCCN)NC(=O)[C@@H](NC(=O)[C@H](CCCCN)NC(=O)[C@@H](NC(=O)[C@H](CS)NC(=O)CNC(=O)[C@H](CO)NC(=O)CNC(=O)[C@H](CO)NC(=O)CCCC[C@@H]1SC[C@@H]2NC(=O)N[C@@H]21)C(C)C)[C@@H](C)O)[C@@H](C)CC)C(=O)O [δ-41] (HELM PEPTIDE1{[O=C1N[C@H]2[C@H](CS[C@H]2CCCCC(=O)[*:2])N1].S.G.S.G.C.V.K.T.K.H.P.Q.L.H.I.E.S.K.I}$$$$V2.0; C-terminus assumed)	reduced the FRET/CFP ratio	less pronounced	clearly demonstrated	no binding	impaired the stimulation of CK1ε kinase activity	without affecting kinase activity itself	to a lesser extent
ε-41: CK1ε-derived 15mer peptide (Biotin-SGSGCVKTKHPQLHIESKF)	reduced the FRET/CFP ratio	less pronounced	clearly demonstrated		impaired the stimulation of CK1ε kinase activity	without affecting kinase activity itself	to a lesser extent
ε-61: CK1ε-derived 15mer peptide (Biotin-SGSGGGVGIPSIKWCGAEG)							strongest binding
δ-101: CK1δ-derived 15mer peptide, negative control (Biotin-SGSGSLKTVLLLADQMISR)			did not cause Tm shifts		did not interfere with the DDX3X stimulation		showed no binding
δ-91: CK1δ-derived 15mer peptide (Biotin-SGSGDLFNFCSRKFSLKTV)							strongest binding
ε-241: CK1ε-derived 15mer peptide (Biotin-SGSGCKGYPSEFSTYLNFC; cysteine pairing not given here)							strongest binding
δ-141: CK1δ-derived 15mer peptide (Biotin-SGSGKGNLVYIIDFGLAKK)							strongest binding
δ-231: CK1δ-derived 15mer peptide (Biotin-SGSGKKMSTPIEVLCKGYP)							to a lesser extent
CC[C@H](C)[C@H](NC(=O)[C@H](CCCCN)NC(=O)[C@H](CCCNC(=N)N)NC(=O)CNC(=O)[C@H](CC(C)C)NC(=O)[C@H](CCCNC(=N)N)NC(=O)[C@H](Cc1ccc(O)cc1)NC(=O)[C@H](CCCNC(=N)N)NC(=O)[C@H](CC(N)=O)NC(=O)CNC(=O)[C@@H](NC(=O)[C@H](CCCNC(=N)N)NC(=O)[C@H](CC(C)C)NC(=O)[C@H](CCC(=O)O)NC(=O)[C@H](CCSC)NC(=O)CNC(=O)[C@H](CO)NC(=O)CNC(=O)[C@H](CO)NC(=O)CCCC[C@@H]1SC[C@@H]2NC(=O)N[C@@H]21)C(C)C)C(=O)O [δ-1] (HELM PEPTIDE1{[O=C1N[C@H]2[C@H](CS[C@H]2CCCCC(=O)[*:2])N1].S.G.S.G.M.E.L.R.V.G.N.R.Y.R.L.G.R.K.I}$$$$V2.0; C-terminus assumed)	reduced the FRET/CFP ratio	less pronounced	clearly demonstrated	strongly interacted with δ-1	impaired the stimulation of CK1ε kinase activity	without affecting kinase activity itself	to a lesser extent
δ-31: CK1δ-derived 15mer peptide (Biotin-SGSGAGEEVAIKLECVKTK)							strongest binding
biotin-SGSG-APPTPLTPTSHTANT [δ-341]	but not ε-1 or the negative control peptide δ-341, reduced the FRET/CFP ratio		did not cause Tm shifts				non-binding
